pIC50: −log10 of the molar value.
What was measured:
Assay type in all cases: cell-based
human TLR9 = molecular target: T1, human TLR9 (Homo sapiens, UniProt Q9NR96); experiment: TLR9 inhibition reporter assay (HEK-Blue, SEAP); settings: HEK-Blue cells overexpressing human TLR9, ligand ODN2006 200 nM, 22 hour incubation
T1 construct: host or cells: HEK-Blue cells
T1 sequence (Q9NR96 26-1032): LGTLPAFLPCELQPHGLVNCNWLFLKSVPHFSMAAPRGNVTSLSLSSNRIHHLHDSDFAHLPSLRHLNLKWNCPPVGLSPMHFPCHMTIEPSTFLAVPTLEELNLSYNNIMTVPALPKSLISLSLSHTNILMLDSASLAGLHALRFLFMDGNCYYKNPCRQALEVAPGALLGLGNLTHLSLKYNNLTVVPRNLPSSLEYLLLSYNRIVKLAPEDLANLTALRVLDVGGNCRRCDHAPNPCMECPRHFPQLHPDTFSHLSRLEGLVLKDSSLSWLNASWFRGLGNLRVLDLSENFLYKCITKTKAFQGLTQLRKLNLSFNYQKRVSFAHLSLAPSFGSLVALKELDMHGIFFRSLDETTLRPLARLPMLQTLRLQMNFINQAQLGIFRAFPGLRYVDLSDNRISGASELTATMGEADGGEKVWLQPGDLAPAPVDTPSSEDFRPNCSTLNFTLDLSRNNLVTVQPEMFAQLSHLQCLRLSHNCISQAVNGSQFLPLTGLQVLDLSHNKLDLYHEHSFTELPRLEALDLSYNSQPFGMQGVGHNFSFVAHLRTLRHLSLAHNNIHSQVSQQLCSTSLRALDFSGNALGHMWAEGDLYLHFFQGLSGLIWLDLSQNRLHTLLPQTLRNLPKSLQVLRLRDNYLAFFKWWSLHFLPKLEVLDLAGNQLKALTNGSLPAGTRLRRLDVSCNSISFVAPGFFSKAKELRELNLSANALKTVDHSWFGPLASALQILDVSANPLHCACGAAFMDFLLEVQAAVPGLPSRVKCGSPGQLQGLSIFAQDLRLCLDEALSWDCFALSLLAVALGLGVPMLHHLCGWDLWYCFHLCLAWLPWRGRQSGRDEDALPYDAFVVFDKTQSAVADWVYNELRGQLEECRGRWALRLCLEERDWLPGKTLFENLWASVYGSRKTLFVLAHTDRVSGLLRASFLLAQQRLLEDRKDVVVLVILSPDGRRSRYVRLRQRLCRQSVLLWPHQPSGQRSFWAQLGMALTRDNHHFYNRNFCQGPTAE
Method: (§1) TLR7/8/9 Inhibition Reporter Assays
(§2) HEK-Blue™-cells (Invivogen) overexpressing human TLR7. TLR8 or TLR9 receptors were used for screening inhibitors of these receptors using an inducible SEAP (secreted embryonic alkaline phosphatase) reporter gene under the control of the IFN-β minimal promoter fused to five NF-κB and AP-1-binding sites. Cells are seeded into Greiner 384 well plates (15000 cells per well) that are pre dispensed (by ECHO) with testing compounds in DMSO to yield a final dose response concentration range of 0.85 nM-50 μM. After a 60 minute compound pre-treatment in 37 degree incubator, the cells are then stimulated with a TLR7 ligand (gardiquimod at a final concentration of 2.5 μM), TLR8 ligand (R848 at a final concentration of 14.25 μM) or TLR9 ligand (ODN2006 at a final concentration of 200 nM) to activate NF-κB and AP-1 which induce the production of SEAP. After a 22 hour incubation at 37° C., 5% CO2, SEAP levels are determined with the addition of HEK-Blue™ Detection reagent (Invivogen), a cell culture medium that allows for detection of SEAP, according to manufacturer's specifications. The percent inhibition is determined as the % reduction in the HEK-Blue signal present in […].

human TLR8 = molecular target: T2, human TLR8 (Homo sapiens, UniProt Q9NR97); experiment: TLR8 inhibition reporter assay (HEK-Blue, SEAP); settings: HEK-Blue cells overexpressing human TLR8, ligand R848 14.25 μM, 22 hour incubation
T2 construct: host or cells: HEK-Blue cells
T2 sequence (Q9NR97 27-1041): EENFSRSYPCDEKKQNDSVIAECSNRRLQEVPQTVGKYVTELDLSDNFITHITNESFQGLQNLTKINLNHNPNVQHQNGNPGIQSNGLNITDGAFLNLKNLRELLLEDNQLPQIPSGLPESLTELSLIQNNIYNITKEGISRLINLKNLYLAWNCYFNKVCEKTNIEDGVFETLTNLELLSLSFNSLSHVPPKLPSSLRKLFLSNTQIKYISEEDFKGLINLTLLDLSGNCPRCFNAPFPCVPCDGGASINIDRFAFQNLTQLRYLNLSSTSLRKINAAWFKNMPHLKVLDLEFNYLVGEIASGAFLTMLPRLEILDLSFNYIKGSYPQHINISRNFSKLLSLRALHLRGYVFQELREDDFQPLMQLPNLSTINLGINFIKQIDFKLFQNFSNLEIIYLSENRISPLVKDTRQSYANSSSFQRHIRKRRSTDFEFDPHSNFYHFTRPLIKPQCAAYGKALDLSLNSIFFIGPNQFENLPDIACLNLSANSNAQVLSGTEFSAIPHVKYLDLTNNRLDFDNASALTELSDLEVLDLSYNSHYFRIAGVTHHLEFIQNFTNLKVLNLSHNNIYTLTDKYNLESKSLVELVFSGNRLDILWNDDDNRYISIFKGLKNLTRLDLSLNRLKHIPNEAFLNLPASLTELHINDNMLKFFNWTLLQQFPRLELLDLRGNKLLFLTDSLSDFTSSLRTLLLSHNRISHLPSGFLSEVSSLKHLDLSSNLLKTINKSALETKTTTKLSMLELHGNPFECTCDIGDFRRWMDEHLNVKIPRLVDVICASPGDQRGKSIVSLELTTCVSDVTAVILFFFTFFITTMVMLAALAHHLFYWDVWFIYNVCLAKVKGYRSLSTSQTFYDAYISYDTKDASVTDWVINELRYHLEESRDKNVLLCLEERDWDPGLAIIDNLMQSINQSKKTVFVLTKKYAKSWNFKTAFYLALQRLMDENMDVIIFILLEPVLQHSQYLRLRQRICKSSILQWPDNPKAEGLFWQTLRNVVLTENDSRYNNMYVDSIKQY
Method: as §1, §2

human TLR7 = molecular target: T3, human TLR7 (Homo sapiens, UniProt Q9NYK1); experiment: TLR7 inhibition reporter assay (HEK-Blue, SEAP); settings: HEK-Blue cells overexpressing human TLR7, ligand gardiquimod 2.5 μM, 22 hour incubation
T3 construct: host or cells: HEK-Blue cells
T3 sequence (Q9NYK1 27-1049): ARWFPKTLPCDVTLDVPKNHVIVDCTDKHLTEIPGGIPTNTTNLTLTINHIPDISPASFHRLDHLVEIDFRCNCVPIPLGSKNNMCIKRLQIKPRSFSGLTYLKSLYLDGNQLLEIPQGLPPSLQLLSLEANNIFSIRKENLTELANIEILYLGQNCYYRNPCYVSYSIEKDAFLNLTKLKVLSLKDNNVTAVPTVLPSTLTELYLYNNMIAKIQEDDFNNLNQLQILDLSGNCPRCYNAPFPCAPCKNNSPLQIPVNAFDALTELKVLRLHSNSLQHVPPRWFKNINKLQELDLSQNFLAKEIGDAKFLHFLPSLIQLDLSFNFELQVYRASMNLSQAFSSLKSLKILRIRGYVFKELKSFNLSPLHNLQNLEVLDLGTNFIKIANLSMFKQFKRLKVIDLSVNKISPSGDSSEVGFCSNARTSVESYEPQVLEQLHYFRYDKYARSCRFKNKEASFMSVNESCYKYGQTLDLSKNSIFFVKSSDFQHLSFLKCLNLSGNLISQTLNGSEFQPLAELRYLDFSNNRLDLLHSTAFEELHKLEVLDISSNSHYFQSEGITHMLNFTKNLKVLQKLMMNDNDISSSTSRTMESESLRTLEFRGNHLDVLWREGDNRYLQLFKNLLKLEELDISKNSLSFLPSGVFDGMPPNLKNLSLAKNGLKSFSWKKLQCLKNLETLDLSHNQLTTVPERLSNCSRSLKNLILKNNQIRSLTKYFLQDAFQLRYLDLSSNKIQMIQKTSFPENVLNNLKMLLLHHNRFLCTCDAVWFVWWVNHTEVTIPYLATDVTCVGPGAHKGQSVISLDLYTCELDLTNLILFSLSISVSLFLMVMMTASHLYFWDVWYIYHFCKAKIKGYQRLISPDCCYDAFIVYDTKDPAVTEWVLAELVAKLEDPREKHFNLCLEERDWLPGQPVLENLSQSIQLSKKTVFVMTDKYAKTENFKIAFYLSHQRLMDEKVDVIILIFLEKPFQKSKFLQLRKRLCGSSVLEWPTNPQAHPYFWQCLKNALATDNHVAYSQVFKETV
Method: as §1, §2

| Structure (SMILES) | pIC50 (human TLR9) | pIC50 (human TLR8) | pIC50 (human TLR7) |
| --- | --- | --- | --- |
| COc1ccc(-c2nc3c(C)cc(-c4ccc(N5CC6(C5)CN(C(C)C)C6)cc4)nc3n2C)cc1OC [Example 59, 2-(3,4-dimethoxyphenyl)-5-(4-(6-isopropyl-2,6-diazaspiro[3.3]heptan-2-yl)phenyl)-3,7-dimethyl-3H-imidazo[4,5-b]pyridine] | 6.07 | – | 5.96 |
| COc1ccc(-c2nc3ncc(C4CCN(C5CCN(CC(C)C)CC5)CC4)cc3[nH]2)cc1OC [Example 12, 2-(3,4-dimethoxyphenyl)-6-(1′-isobutyl-[1,4′-bipiperidin]-4-yl)-1H-imidazo[4,5-b]pyridine] | 7.13 | – | – |
| CC(C)N1CCC(N2CCC(c3ccc4nc(-c5ccc(S(C)(=O)=O)cc5)n(C)c4n3)CC2)CC1 [Example 17, 5-(1′-isopropyl-[1,4′-bipiperidin]-4-yl)-3-methyl-2-(4-(methylsulfonyl)phenyl)-3H-imidazo[4,5-b]pyridine] | 7.15 | < 4.30 | 4.74 |
| CS(=O)(=O)c1ccc(-c2nc3ccc(-c4ccc(N5CCN(CCCN6CCOCC6)CC5)cc4)nc3n2C2CC2)cc1 [Example 56, 4-(3-(4-(4-(3-cyclopropyl-2-(4-(methylsulfonyl)phenyl)-3H-imidazo[4,5-b]pyridin-5-yl)phenyl)piperazin-1-yl)propyl) morpholine] | 6.55 | – | < 4.30 |
| Cc1cc(-c2ccc(CN3CC4(C3)CN(CC(C)C)C4)cc2)nc2c1nc(-c1ccc(S(C)(=O)=O)cc1)n2C1CC1 [Example 4, 3-cyclopropyl-5-(4-((6-isobutyl-2,6-diazaspiro[3.3]heptan-2-yl)methyl)phenyl)-7-methyl-2-(4-(methylsulfonyl)phenyl)-3H-imidazo[4,5-b]pyridine] | 7.15 | – | 5.59 |
| COc1ccc(-c2nc3ncc(-c4ccc(N5CCN(C(C)C)CC5)cc4)cc3n2C2CC2)cc1OC [Example 50, 1-cyclopropyl-2-(3,4-dimethoxyphenyl)-6-(4-(4-isopropylpiperazin-1-yl)phenyl)-1H-imidazo[4,5-b]pyridine] | 6.49 | 5.47 | – |
| COc1cc(-c2nc3c(C)cc(-c4ccc(N5CCN(C(C)C)CC5)cc4)nc3n2C)cn2ncnc12 [Example 45, 5-(4-(4-isopropylpiperazin-1-yl)phenyl)-2-(8-methoxy-[1,2,4]triazolo[1,5-a]pyridin-6-yl)-3,7-dimethyl-3H-imidazo[4,5-b]pyridine] | 6.85 | – | 5.24 |
| Cc1cc(-c2ccc(CN3CC4(C3)CN(C3COC3)C4)cc2)nc2c1nc(-c1ccc(S(C)(=O)=O)cc1)n2C1CC1 [Example 6, 3-cyclopropyl-7-methyl-2-(4-(methylsulfonyl)phenyl)-5-(4-((6-(oxetan-3-yl)-2,6-diazaspiro[3.3]heptan-2-yl)methyl)phenyl)-3H-imidazo[4,5-b]pyridine] | 6.14 | – | 4.82 |

Continued, values first:

| pIC50 (human TLR9) | pIC50 (human TLR8) | pIC50 (human TLR7) | Structure (SMILES) |
| --- | --- | --- | --- |
| 6.85 | < 4.30 | 6.00 | COc1ccc(-c2nc3c(C)cc(C4CCN([C@H]5C[C@@H]6CN(C(C)C)C[C@@H]6C5)CC4)nc3n2C)cc1OC [Example 36, 2-(3,4-dimethoxyphenyl)-5-(1-((3aR,5s,6aS)-2-isopropyloctahydrocyclopenta[c]pyrrol-5-yl)piperidin-4-yl)-3,7-dimethyl-3H-imidazo[4,5-b]pyridine] |
| 6.52 | 4.62 | 5.43 | Cc1cc(C2CCN(C3CC4CCC(C3)N4C(C)C)CC2)nc2c1nc(-c1ccc(S(C)(=O)=O)cc1)n2C (single isomer, unassigned) [Example 27, 5-(1-(8-isopropyl-8-azabicyclo[3.2.1]octan-3-yl)piperidin-4-yl)-3,7-dimethyl-2-(4-(methylsulfonyl)phenyl)-3H-imidazo[4,5-b]pyridine] |
| 6.26 | – | – | Cc1cc(C2CCN(C3CC4CCC(C3)N4CC(C)C)CC2)nc2c1nc(-c1ccc(S(C)(=O)=O)cc1)n2C (single isomer, unassigned) [Example 29, 5-(1-(8-isobutyl-8-azabicyclo[3.2.1]octan-3-yl)piperidin-4-yl)-3,7-dimethyl-2-(4-(methylsulfonyl)phenyl)-3H-imidazo[4,5-b]pyridine] |
